Experimental data as given in ChEMBL document CHEMBL2021890, “A new class of prolylcarboxypeptidase inhibitors, part 1: discovery and evaluation” (Bioorg Med Chem Lett, 2012).

Columns and labels:
Mus musculus [1] = assay: Ex-vivo inhibition of PrCP in heat inactivated 25% plasma of po dosed mouse by FRET analysis; type: functional, organism-based
[2] = Metabolic stability in mouse liver microsomes after 30 mins by LC/MS analysis; type: ADME, Microsome; conditions: read-out: Stability
[3] = Oral bioavailability in mouse at 1 mg/kg; type: ADME, organism-based; conditions: in vivo
Mus musculus [4] = assay: Ex-vivo inhibition of PrCP in heat inactivated 100% plasma of po dosed mouse by FRET analysis; type: functional, organism-based
[5] = Metabolic stability in human liver microsomes after 30 mins by LC/MS analysis; type: ADME, Microsome; conditions: read-out: Stability
[6] = Volume of distribution in mouse at 0.5 mg/kg, iv and 1 mg/kg, po; type: ADME, organism-based; conditions: in vivo
Mus musculus [7] = assay: Dose normalized AUC in mouse at 1 mg/kg, po; type: ADME, organism-based; design: dose 1 mg/kg, route oral; conditions: in vivo
[8] = Half life in mouse at 0.5 mg/kg, iv and 1 mg/kg, po; type: ADME, organism-based; conditions: in vivo
[9] = molecular target: T1, Lysosomal Pro-X carboxypeptidase (Mus musculus, UniProt Q7TMR0); assay: Inhibition of mouse PrCP
T1 sequence (Q7TMR0 whole entry): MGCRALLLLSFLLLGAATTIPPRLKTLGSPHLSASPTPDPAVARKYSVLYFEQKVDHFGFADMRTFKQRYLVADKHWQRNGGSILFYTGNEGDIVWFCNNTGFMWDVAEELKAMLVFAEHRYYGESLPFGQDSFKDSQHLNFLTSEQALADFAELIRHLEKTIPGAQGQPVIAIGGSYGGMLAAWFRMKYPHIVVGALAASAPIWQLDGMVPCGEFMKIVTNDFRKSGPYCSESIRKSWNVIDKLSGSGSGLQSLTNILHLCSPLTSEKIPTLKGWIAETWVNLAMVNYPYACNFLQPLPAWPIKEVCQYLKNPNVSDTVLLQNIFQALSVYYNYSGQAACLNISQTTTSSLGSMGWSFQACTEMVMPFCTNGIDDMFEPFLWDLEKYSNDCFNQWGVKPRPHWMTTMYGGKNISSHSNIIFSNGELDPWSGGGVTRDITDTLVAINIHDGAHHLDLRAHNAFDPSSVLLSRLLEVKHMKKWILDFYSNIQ

[10] = Plasma protein binding in 10% mouse plasma assessed as percentage unbound; type: ADME, cell-free
Mus musculus [11] = assay: Ex-vivo inhibition of po dosed mouse PrCP in the absence of plasma by FRET analysis; type: functional, organism-based
[12] = Clearance in mouse at 0.5 mg/kg, iv and 1 mg/kg, po; type: ADME, organism-based; conditions: in vivo
[13] = Plasma protein binding in 10% human plasma assessed as percentage unbound; type: ADME, cell-free
Mus musculus [14] = assay: Ex-vivo inhibition of PrCP in heat inactivated 100% plasma of C57 mouse assessed as target engagement at 100 mg/kg, po after 20 hrs by FRET analysis; type: functional
[15] = Drug uptake in C57 mouse brain at 100 mg/kg, po after 20 hrs by LC/MS analysis; type: ADME, organism-based; design: dose 100 mg/kg, route oral; conditions: read-out: Drug uptake
[16] = Ratio of drug level in brain to plasma in C57 mouse at 100 mg/kg, po after 20 hrs by LC/MS analysis; type: ADME, organism-based; design: dose 100 mg/kg, route oral; conditions: read-out: BPR
Mus musculus [17] = assay: Ex-vivo inhibition of PrCP in heat inactivated 100% plasma of C57 mouse assessed as target engagement at 100 mg/kg, po after 20 hrs calculated as [cmpd]plasma/([cmpd]plasma + Ki (heat inactivated plasma))x100; type: functional
Mus musculus [18] = assay: Ex-vivo inhibition of PrCP in heat inactivated 100% plasma of C57 mouse assessed as target engagement at 10 mg/kg, po after 20 hrs by FRET analysis; type: functional
[19] = Drug uptake in C57 mouse brain at 10 mg/kg, po after 20 hrs by LC/MS analysis; type: ADME, organism-based; design: dose 10 mg/kg, route oral; conditions: read-out: Drug uptake
Mus musculus [20] = assay: Ex-vivo inhibition of PrCP in heat inactivated 100% plasma of C57 mouse assessed as target engagement at 10 mg/kg, po after 20 hrs calculated as [cmpd]plasma/([cmpd]plasma + Ki (heat inactivated plasma))x100; type: functional
[21] = Drug uptake in C57 mouse plasma at 10 mg/kg, po after 20 hrs by LC/MS analysis; type: ADME, organism-based; design: dose 10 mg/kg, route oral
[22] = Apparent permeability across pig LLC-PK1 cells at 1 uM; type: ADME, cell-based, Sus scrofa
[23] = Drug uptake in C57 mouse plasma at 100 mg/kg, po after 20 hrs by LC/MS analysis; type: ADME, organism-based; design: dose 100 mg/kg, route oral
[24] = Ratio of drug level in brain to plasma in C57 mouse at 10 mg/kg, po after 20 hrs by LC/MS analysis; type: ADME, organism-based; design: dose 10 mg/kg, route oral; conditions: read-out: BPR
Mus musculus [25] = assay: Ex-vivo inhibition of PrCP in heat inactivated 100% plasma of C57 mouse assessed as target engagement at 80 mg/kg, po after 20 hrs by FRET analysis; type: functional
[26] = Drug uptake in C57 mouse brain at 80 mg/kg, po after 20 hrs by LC/MS analysis; type: ADME, organism-based; design: dose 80 mg/kg, route oral; conditions: read-out: Drug uptake
[27] = Drug uptake in C57 mouse plasma at 80 mg/kg, po after 20 hrs by LC/MS analysis; type: ADME, organism-based; design: dose 80 mg/kg, route oral
[28] = Ratio of drug level in brain to plasma in C57 mouse at 80 mg/kg, po after 20 hrs by LC/MS analysis; type: ADME, organism-based; design: dose 80 mg/kg, route oral; conditions: read-out: BPR
Mus musculus [29] = assay: Ex-vivo inhibition of PrCP in heat inactivated 100% plasma of C57 mouse assessed as target engagement at 80 mg/kg, po after 20 hrs calculated as [cmpd]plasma/([cmpd]plasma + Ki (heat inactivated plasma))x100; type: functional
[30] = Drug uptake in C57 mouse brain at 30 mg/kg, po after 20 hrs by LC/MS analysis; type: ADME, organism-based; design: dose 30 mg/kg, route oral; conditions: read-out: Drug uptake
[31] = Ratio of drug level in brain to plasma in C57 mouse at 30 mg/kg, po after 20 hrs by LC/MS analysis; type: ADME, organism-based; design: dose 30 mg/kg, route oral; conditions: read-out: BPR
Mus musculus [32] = assay: Ex-vivo inhibition of PrCP in heat inactivated 100% plasma of C57 mouse assessed as target engagement at 30 mg/kg, po after 20 hrs calculated as [cmpd]plasma/([cmpd]plasma + Ki (heat inactivated plasma))x100; type: functional
Mus musculus [33] = assay: Ex-vivo inhibition of PrCP in heat inactivated 100% plasma of C57 mouse assessed as target engagement at 30 mg/kg, po after 20 hrs by FRET analysis; type: functional
[34] = Drug uptake in C57 mouse plasma at 30 mg/kg, po after 20 hrs by LC/MS analysis; type: ADME, organism-based; design: dose 30 mg/kg, route oral
[35] = Clearance in mouse at 2 mg/kg, iv and 10 mg/kg, po; type: ADME, organism-based; conditions: in vivo
[36] = Volume of distribution in mouse at 2 mg/kg, iv and 10 mg/kg, po; type: ADME, organism-based; conditions: in vivo
[37] = Oral bioavailability in mouse at 10 mg/kg; type: ADME, organism-based; conditions: in vivo
[38] = Half life in mouse at 2 mg/kg, iv and 10 mg/kg, po; type: ADME, organism-based; conditions: in vivo
Mus musculus [39] = assay: Dose normalized AUC in mouse at 10 mg/kg, po; type: ADME, organism-based; design: dose 10 mg/kg, route oral; conditions: in vivo

| SMILES | Ki (Mus musculus [1]) | remaining at 0.5 h [2] | bioavailability [3] | Ki (Mus musculus [4]) | remaining at 0.5 h [5] | Vd [6] | AUC/dose (Mus musculus [7]) | half-life [8] | IC50 [9] | fraction unbound [10] | Ki (Mus musculus [11]) | clearance [12] | fraction unbound [13] | Papp at 1 µM [22] | further results |
| --- | --- | --- | --- | --- | --- | --- | --- | --- | --- | --- | --- | --- | --- | --- | --- |
| O=C([C@@H]1CNC[C@H]1c1ccc(F)cc1F)N1CCC(c2ccnn2-c2ccc(F)c(Cl)c2)CC1 | 7.7 nM | 59% | 27% | 21.9 nM | 44% | 8 L/kg | 0.16 µM·kg·h/mg | 1.6 h | 3.7 nM | 0.1 | 2.9 nM | 60 mL/min/kg | 0.12 | – | – |
| CC(C)(C)N1C[C@@H](C(=O)N2CCC(c3ccnn3-c3ccc(F)c(Cl)c3)CC2)[C@H](c2ccc(F)cc2F)C1 | 0.7 nM | 3% | 18% | 1.4 nM | 4% | 22 L/kg | 0.05 µM·kg·h/mg | 3.1 h | 0.3 nM | 0.16 | 0.5 nM | 121 mL/min/kg | 0.18 | 28.8 ×10⁻⁶ cm/s | inhibition in vivo at 100 mg/kg (Mus musculus [14]): 99.9%; concentration at 20 h [15]: 801 nM; Kp at 20 h [16]: 0.46; inhibition in vivo at 100 mg/kg (Mus musculus [17]): 99.9%; inhibition in vivo at 10 mg/kg (Mus musculus [18]): 99.5%; concentration at 20 h [19]: 21 nM; inhibition in vivo at 10 mg/kg (Mus musculus [20]): 99.3%; concentration at 20 h [21]: 196 nM; concentration at 20 h [23]: 1800 nM; Kp at 20 h [24]: 0.11 |
| Cc1cc(C2CCN(C(=O)[C@@H]3CN(C(C)(C)C)C[C@H]3c3ccc(F)cc3F)CC2)n(-c2ccc(Cl)cc2Cl)n1 | 2.3 nM | 39% | 61% | 6 nM | 31% | 16 L/kg | 0.31 µM·kg·h/mg | 3.1 h | 1 nM | 0.16 | 1.1 nM | 57 mL/min/kg | 0.1 | – | – |
| Cc1cc(C2CCN(C(=O)[C@@H]3CN(C(C)(C)C)C[C@H]3c3ccc(F)cc3F)CC2)n(-c2ccc(F)c(F)c2)n1 | 9.3 nM | 52% | 46% | 18.3 nM | 39% | 13 L/kg | 0.2 µM·kg·h/mg | 1.9 h | 9.1 nM | 0.16 | 6.4 nM | 71 mL/min/kg | 0.25 | 28 ×10⁻⁶ cm/s | inhibition in vivo at 80 mg/kg (Mus musculus [25]): 99.4%; concentration at 20 h [26]: 1180 nM; concentration at 20 h [27]: 1910 nM; Kp at 20 h [28]: 0.63; inhibition in vivo at 80 mg/kg (Mus musculus [29]): 99.1% |
| Cc1cc(C2CCN(C(=O)[C@@H]3CN(C(C)(C)C)C[C@H]3c3ccc(F)cc3F)CC2)n(-c2ccc(Cl)c(Cl)c2)n1 | 5.9 nM | 18% | 38% | 18.4 nM | 45% | 11 L/kg | 0.26 µM·kg·h/mg | 2.7 h | 1 nM | 0.019 | 1.7 nM | 43 mL/min/kg | 0.02 | – | – |
| Cc1cc(C2CCN(C(=O)[C@@H]3CN(C(C)(C)C)C[C@H]3c3ccc(F)cc3F)CC2)n(-c2cc(Cl)ccc2Cl)n1 | 0.5 nM | 43% | 31% | 0.9 nM | 30% | 13 L/kg | 0.19 µM·kg·h/mg | 2.9 h | 0.4 nM | 0.17 | 0.4 nM | 48 mL/min/kg | 0.11 | 26.9 ×10⁻⁶ cm/s | concentration at 20 h [30]: 698 nM; Kp at 20 h [31]: 1.35; inhibition in vivo at 30 mg/kg (Mus musculus [32]): 99.8%; inhibition in vivo at 30 mg/kg (Mus musculus [33]): 97.7%; concentration at 20 h [34]: 547 nM |
| Cc1nc(C2CCN(C(=O)[C@@H]3CN(C(C)(C)C)C[C@H]3c3ccc(F)cc3F)CC2)n(-c2ccc(Cl)c(C)c2)n1 | 1.1 nM | 22% | – | 1.4 nM | 11% | – | – | – | 10 nM | 0.13 | 1 nM | – | 0.16 | – | clearance [35]: 128 mL/min/kg; Vd [36]: 17 L/kg; bioavailability [37]: 20%; half-life [38]: 1.8 h; AUC/dose (Mus musculus [39]): 0.05 µM·kg·h/mg |
| Cc1cc(C2CCN(C(=O)[C@@H]3CN(C(C)(C)C)C[C@H]3c3ccc(F)cc3F)CC2)n(-c2ccc(F)c(Cl)c2)n1 | 1.3 nM | 43% | 59% | 2.5 nM | 38% | 19 L/kg | 0.26 µM·kg·h/mg | 3.1 h | 0.8 nM | 0.16 | 0.9 nM | 68 mL/min/kg | 0.16 | – | – |
